Test results reported in patent US20110172204A1, “COMPOUNDS AND THEIR USE” (TAKEDA PHARMACEUTICAL COMPANY LIMITED, priority 2010, published 2011).

Experiments:
[1] = molecular target: T1, human H3 receptor (Homo sapiens, UniProt Q9Y5N1); test: In vitro H3 binding assay (3H-NαMH competition binding); set-up: expressed in transfected cells; details: membranes of CHO-K1 cells expressing human H3; inhibition of specific binding of 2 nM 3H-NαMH; read-out: hH3 binding IC50
Experimental: The ability of compounds to bind to the H3 receptor was determined by measuring the reduction in tritiated N-α-methyl-histamine (^3H-NαMH) binding in a competition binding assay. Changes in the levels of bound radio-label were monitored by scintillation counting with a Trilux Microbeta (Perkin Elmer).
Membranes were prepared from CHO-K1 cells stably expressing human H3 receptor; routinely grown as monolayers in Ham's F12 medium (Invitrogen) supplemented with 10% Foetal Clone III (Hyclone), 500 μg/ml G418 (Invitrogen), 5 μg/ml blasticidine S (Invivogen) and 50 μg/ml Gentamicin (Sigma) in 5% CO2 at 37° C. Cells were grown to 80-95% confluency, rinsed once with 1×PBS (Invitrogen) and detached by incubating with 1×PBS containing 0.02% EDTA (Sigma) for 10 minutes at room temperature. Cells were collected by centrifugation at 900×g, 4° C. for 10 minutes. Cells were rinsed once with 1×PBS and re-suspended in ice cold homogenisation buffer (50 mM Tris-HCl (pH 7.4), 2.5 mM EDTA, 5 mM MgCl2, 200 mM Sucrose) at 1×10^7 cells/ml and kept on ice. Cells were homogenised on ice and debris removed by centrifugation at 500×g, 4° C. for 5 minutes. The resulting supernatant was centrifuged at 75,600×g, 4° C. for 60 minutes. Membranes were suspended in homogenisation buffer, protein concentration was determined (BCA Protein Assay kit (Pierce)), diluted to 2.2 mg/ml, dispensed into 1 ml aliquots and stored at −80° C.
Membranes were thawed on ice, sonicated with 4 cycles of 20 pulses (50% amplitude, 0.5 pulse) (UP200S Hielscher) on ice, diluted in assay buffer (50 mM Tris-HCl (pH7.4), 5 mM MgCl2) to 62.5 μg/ml. Compound was serially diluted in DMSO before being diluted 1:10 with assay buffer. 5 μg of membrane in 80 μl of assay buffer was added per well of a 96 well polystyrene plate (Corning). 10 μl of compound was added per well. The assay was initiated by the addition of 10 μl of 20 nM ^3H-NαMH per well and incubated for one hour at room temperature with shaking Total binding was determined in the presence of 1% DMSO and non-specific binding was determined by the inclusion of 1 μM R-α-methyl-histamine (RαMH). Incubations were then filtered through filtermat A (Perkin Elmer) and washed three times with assay buffer. Filtermats were dried at 42° C. for two hours, scintillant added and the level of bound radioactivity determined.
IC50 values for compounds were determined from seven point log scale dose-response studies and represent the concentration of compound required to inhibit 50% of the specific binding of 2 nM ^3H-NαMH (difference between total and non-specific binding). Curves were generated using the average of duplicate wells for each data point and analyzed using nonlinear regression of sigmoidal dose response (variable slope).

[2] = molecular target: T1, human H3 receptor; test: In vitro H3 functional assay (cAMP response element driven luciferase reporter); type: cell-based; set-up: expressed in transfected cells; details: CHO(dhfr+)-cre-luc cells expressing human H3; forskolin 1 μM, RαMH 10 nM; read-out: hH3 functional IC50
Experimental: The functional activity of compounds at the H3 receptor was determined by measuring changes in the level of intracellular cAMP using a cAMP response element driven luciferase reporter assay. The changes in luciferase expression were monitored by a luminescence plate reader, Analyst HT (MDS Analytical). Increases in intracellular cAMP were readily detected upon activation of protein kinase A by forskolin (Sigma) and suppression of this response observed with the application of the H3 receptor agonist RαMH (Sigma).
CHO(dhfr^+)-cre-luc cells stably expressing human H3 receptor were routinely grown as monolayers in Minimal Essential Medium α (MEMα) (Invitrogen) supplemented with 10% dialysed FBS (Hyclone), in 5% CO2 at 37° C. 48 hours prior to assay, cells were seeded in clear-base white walled 384-well plates (Corning) at a density of 5000 cells/well. On the day of assay, growth media was removed and replaced with 15 μl of assay buffer (MEMα, 5 mg/ml fatty acid free BSA (Sigma)) per well. Cells were then incubated for 30 minutes at 37° C., 5% CO2. Compound was serially diluted in DMSO before being diluted 1:10 with assay buffer. 2.5 μl of compound diluted in assay buffer was added and cells incubated for 5 minutes at 37° C., 5% CO2. 2.5 μl of each reagent was then added in the following order: RαMH (10 nM), isobutylmethylxanthine (1-methyl-3-(2-methylpropyl)-7H-purine-2,6-dione; IBMX) (500 μM) (Sigma) and forskolin (1 μM). Cells were then incubated for 90 minutes at 37° C., 5% CO2, followed by 30 minutes at room temperature. At the end of incubation 25 μl of Steadylite reagent (Perkin Elmer) was added, plates were sealed and placed on a shaker for 5 minutes. The level of light output to determine the level of luciferase expression was then measured.
IC50 values for compounds were determined from ten point half log scale dose-response studies and represent the concentration of compound required to […] 50% inhibition of forskolin stimulated cells in the presence of RαMH alone. Curves were generated using the average of duplicate wells for each data point and analyzed using nonlinear regression of four parameter dose response.

[3] = molecular target: T2, H3 receptor (Mus musculus, UniProt P58406); details: lean and obese mice; cited from earlier work
T2 construct: host or cells: living mouse (endogenous receptor)

[4] = molecular target: T2, H3 receptor; details: mice; cited from earlier work
[5] = molecular target: T1, human H3 receptor; details: cited from earlier work
[6] = molecular target: rat H3 receptors (Rattus norvegicus, UniProt Q9QYN8); details: cited from earlier work
[7] = molecular target: T3, H3 receptor (Rattus norvegicus, UniProt Q9QYN8); details: cited from earlier work
T3 construct: host or cells: living rat (endogenous receptor)

[8] = system: H3 receptor; details: a number of acute pain models; cited from earlier work
[9] = molecular target: T3, H3 receptor; details: cited from earlier work; remark: listed apart in the source

T1 sequence (Q9Y5N1 whole entry): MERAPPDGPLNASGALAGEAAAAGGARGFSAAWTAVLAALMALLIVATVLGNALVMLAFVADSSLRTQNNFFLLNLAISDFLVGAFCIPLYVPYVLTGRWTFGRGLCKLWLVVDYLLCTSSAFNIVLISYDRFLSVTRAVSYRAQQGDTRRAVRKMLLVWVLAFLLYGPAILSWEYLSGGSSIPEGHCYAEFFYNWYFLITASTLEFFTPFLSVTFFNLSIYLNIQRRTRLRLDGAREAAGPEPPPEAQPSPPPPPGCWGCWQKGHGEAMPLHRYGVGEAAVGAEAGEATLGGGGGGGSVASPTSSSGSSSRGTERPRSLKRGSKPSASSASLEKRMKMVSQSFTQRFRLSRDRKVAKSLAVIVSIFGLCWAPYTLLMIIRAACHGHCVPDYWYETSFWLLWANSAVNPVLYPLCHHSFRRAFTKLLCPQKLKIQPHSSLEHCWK
T3 sequence (Q9QYN8 whole entry): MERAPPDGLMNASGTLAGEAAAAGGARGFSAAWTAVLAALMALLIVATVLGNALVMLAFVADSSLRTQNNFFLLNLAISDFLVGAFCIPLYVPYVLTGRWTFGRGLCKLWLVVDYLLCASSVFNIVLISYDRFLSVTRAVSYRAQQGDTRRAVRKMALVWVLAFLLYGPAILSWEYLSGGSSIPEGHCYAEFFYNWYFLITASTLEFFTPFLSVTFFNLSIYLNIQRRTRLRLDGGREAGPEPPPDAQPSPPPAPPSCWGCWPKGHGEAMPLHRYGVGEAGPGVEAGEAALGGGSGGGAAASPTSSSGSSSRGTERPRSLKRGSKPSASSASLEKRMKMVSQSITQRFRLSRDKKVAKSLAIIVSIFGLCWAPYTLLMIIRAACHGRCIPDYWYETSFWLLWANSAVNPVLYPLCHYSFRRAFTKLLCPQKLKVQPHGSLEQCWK
T2 sequence (P58406 whole entry): as the sequence (Q9QYN8 whole entry) above, with T15A, A286T, A290G, R387H, I389V counted along it
Chain of rat H3 receptors (Q9QYN8 whole entry): as the sequence (Q9QYN8 whole entry) above

Compound | IC50 [1] [nM] | IC50 [2] [nM] | further results
CO[C@H](C)CN(C)c1ncc(C(=O)NCc2ccc3c(c2)CCN(C2CCC2)CC3)cn1 [Example 9, N-[(3-cyclobutyl-2,3,4,5-tetrahydro-1H-3-benzazepin-7-yl)methyl]-2-{[(2R)-2-methoxypropyl](methyl)amino}pyrimidine-5-carboxamide] | 4 | 8 | 
NC(=NCc1ccc(Cl)cc1)SCCCc1cnc[nH]1 [clobenpropit] |  |  | energy intake [3]: reducing energy intake; histamine release in the hypothalamus [4]: increases histamine release
CO[C@@H](C)CN(C)c1ncc(C(=O)NCc2ccc3c(c2)CCN(C2CCC2)CC3)cn1 [Example 8, N-[(3-cyclobutyl-2,3,4,5-tetrahydro-1H-3-benzazepin-7-yl)methyl]-2-{[(2S)-2-methoxypropyl](methyl)amino}pyrimidine-5-carboxamide] | 0.73 | 2 | 
CC(C)N1CCCN(C(=O)C2CCN(c3ccc(C(F)(F)F)nc3)CC2)CC1 [GSK334429] |  |  | affinity for human H3 receptors [5]: high affinity; affinity for rat H3 receptors [6]: high affinity; tactile allodynia [7]: reduced tactile allodynia
CNC(=O)c1cnc(Oc2ccc3c(c2)CCN(C2CCC2)CC3)cn1 [GSK207040] |  |  | affinity for rat H3 receptors [6]: high affinity; tactile allodynia [7]: reduced tactile allodynia
S=C(NC1CCCCC1)N1CCC(c2cnc[nH]2)CC1 [thioperamide] |  |  | antinociceptive effect [8]: antinociceptive effect
C[C@H]1CC[C@H](C)N1CCCOc1ccc(-c2ccc(C(=O)N3CCOCC3)cc2)cc1 [Example A-349821] |  |  | cognition-enhancing effects [9]: cognition-enhancing effects

Continued, in another order:

IC50 [1] [nM] | IC50 [2] [nM] | Compound | further results
1 | 3 | O=C(NCc1ccc2c(c1)CCN(C1CCC1)CC2)c1cnc(N2CCC(F)(F)CC2)nc1 [Example 5, N-((3-cyclobutyl-2,3,4,5-tetrahydro-1H-3-benzazepin-7-yl)methyl)-2-(4,4-difluoropiperidin-1-yl)pyrimidine-5-carboxamide] | 
2 | 2 | CO[C@H]1CCN(c2ncc(C(=O)NCc3ccc4c(c3)CCN(C3CCC3)CC4)cn2)C1 [Example 2, N-[(3-cyclobutyl-2,3,4,5-tetrahydro-1H-3-benzazepin-7-yl)methyl]-2-[(3S)-3-methoxypyrrolidin-1-yl]pyrimidine-5-carboxamide] | 
2 | 3 | O=C(NCc1ccc2c(c1)CCN(C1CCC1)CC2)c1cnc(N2CCC(F)(F)C2)nc1 [Example 4, N-[(3-cyclobutyl-2,3,4,5-tetrahydro-1H-3-benzazepin-7-yl)methyl]-2-(3,3-difluoropyrrolidin-1-yl)pyrimidine-5-carboxamide] | 
5 | 6 | CO[C@@H]1CCN(c2ncc(C(=O)N(C)Cc3ccc4c(c3)CCN(C3CCC3)CC4)cn2)C1 [Example 7, N-[(3-cyclobutyl-2,3,4,5-tetrahydro-1H-3-benzazepin-7-yl)methyl]-2-[(3R)-3-methoxypyrrolidin-1-yl]-N-methylpyrimidine-5-carboxamide] | 
4 | 2 | CO[C@H]1CCN(c2ncc(C(=O)N(C)Cc3ccc4c(c3)CCN(C3CCC3)CC4)cn2)C1 [Example 6, N-[(3-cyclobutyl-2,3,4,5-tetrahydro-1H-3-benzazepin-7-yl)methyl]-2-[(3S)-3-methoxypyrrolidin-1-yl]-N-methylpyrimidine-5-carboxamide] | 
3 | 2 | COC1CN(c2ncc(C(=O)NCc3ccc4c(c3)CCN(C3CCC3)CC4)cn2)C1 [Example 3, N-((3-cyclobutyl-2,3,4,5-tetrahydro-1H-3-benzazepin-7-yl)methyl)-2-(3-methoxyazetidin-1-yl)pyrimidine-5-carboxamide] | 
0.5 | 1 | CO[C@@H]1CCN(c2ncc(C(=O)NCc3ccc4c(c3)CCN(C3CCC3)CC4)cn2)C1 [Example 1, N-[(3-cyclobutyl-2,3,4,5-tetrahydro-1H-3-benzazepin-7-yl)methyl]-2-[(3R)-3-methoxypyrrolidin-1-yl]pyrimidine-5-carboxamide] | 
